Results published in US12295936B2, “Immunomodulating urea azalides” (Zoetis Services LLC, priority 2020, dated 2025).
Where two headings read alike, the source gives them in different places.

How the values were obtained:
Assay in all cases: LPS-stimulated whole bovine blood assay, MSD cytokine detection
Assay type in all cases: cell-based
TNF-α = conditions: Bos taurus, read-out: TNF-α (IC50 μM)
IL-6 = conditions: Bos taurus, read-out: IL-6 (IC50 μM)
Excerpt: In order to correlate RNA sequencing data to cytokine changes the whole blood assay was utilized. […] The enhancement result represents an overall stimulation of cytokine levels due to cellular stress or potential toxicity with increasing concentrations of the compound, representing a typical bell shape response curve for immunomodulatory activity.

IL-1β = conditions: overstimulation of IL-1β, LPS-stimulated bovine whole blood
[1] = LPS-stimulated bovine whole blood

Structure (SMILES) | IC50 (TNF-α) | IC50 (IL-6) | IL-1β OS of LPS (IL-1β) | IC50 (TNF-α; [1]) | IC50 (IL-6; [1])
CCCNC[C@]1(O)[C@H](C)O[C@@H](O[C@H]2[C@H](C)[C@@H](O[C@@H]3O[C@H](C)C[C@H](N(C)C(=O)N(C)c4cnn(C)c4)[C@H]3O)[C@](C)(O)C[C@@H](C)CN[C@H](C)[C@@H](O)[C@](C)(O)[C@@H](CC)OC(=O)[C@@H]2C)C[C@@]1(C)OC [Example H-58, 1-((2S,3R,4S,6R)-2-(((2R,3S,4R,5R,8R,10R,11R,12S,13S,14R)-2-ethyl-3,4,10-trihydroxy-13-(((2R,4R,5S,6S)-5-hydroxy-4-methoxy-4,6-dimethyl-5-((propylamino)methyl)tetrahydro-2H-pyran-2-yl)oxy)-3,5,8,10,12,14-hexamethyl-15-oxo-1-oxa-6-azacyclopentadecan-11-yl)oxy)-3-hydroxy-6-methyltetrahydro-2H-pyran-4-yl)-1,3-dimethyl-3-(1-methyl-1H-pyrazol-4-yl)urea] | > 250 µM | > 250 µM | >250 µM |  | 
CCCNC[C@]1(O)[C@H](C)O[C@@H](O[C@H]2[C@H](C)[C@@H](O[C@@H]3O[C@H](C)C[C@H](N(CC(C)C)C(=O)N(C)c4ccccc4)[C@H]3O)[C@](C)(O)C[C@@H](C)CN[C@H](C)[C@@H](O)[C@](C)(O)[C@@H](CC)OC(=O)[C@@H]2C)C[C@@]1(C)OC [Example H-70, 1-((2S,3R,4S,6R)-2-(((2R,3S,4R,5R,8R,10R,11R,12S,13S,14R)-2-ethyl-3,4,10-trihydroxy-13-(((2R,4R,5S,6S)-5-hydroxy-4-methoxy-4,6-dimethyl-5-((propylamino)methyl)tetrahydro-2H-pyran-2-yl)oxy)-3,5,8,10,12,14-hexamethyl-15-oxo-1-oxa-6-azacyclopentadecan-11-yl)oxy)-3-hydroxy-6-methyltetrahydro-2H-pyran-4-yl)-1-isobutyl-3-methyl-3-phenylurea] |  |  | 6 µM | 13 µM | 4 µM
CCCNC[C@]1(O)[C@H](C)O[C@@H](O[C@H]2[C@H](C)[C@@H](O[C@@H]3O[C@H](C)C[C@H](N(C)C(=O)Nc4ccccc4OC)[C@H]3O)[C@](C)(O)C[C@@H](C)CN[C@H](C)[C@@H](O)[C@](C)(O)[C@@H](CC)OC(=O)[C@@H]2C)C[C@@]1(C)OC [Example H-76, 1-((2S,3R,4S,6R)-2-(((2R,3S,4R,5R,8R,10R,11R,12S,13S,14R)-2-ethyl-3,4,10-trihydroxy-13-(((2R,4R,5S,6S)-5-hydroxy-4-methoxy-4,6-dimethyl-5-((propylamino)methyl)tetrahydro-2H-pyran-2-yl)oxy)-3,5,8,10,12,14-hexamethyl-15-oxo-1-oxa-6-azacyclopentadecan-11-yl)oxy)-3-hydroxy-6-methyltetrahydro-2H-pyran-4-yl)-3-(2-methoxyphenyl)-1-methylurea] |  |  | 100 µM | 179 µM | > 500 µM
CC[C@H]1OC(=O)[C@H](C)[C@@H](O[C@H]2C[C@@](C)(OC)[C@@H](O)[C@H](C)O2)[C@H](C)[C@@H](O[C@@H]2O[C@H](C)C[C@H](N(C)C(=O)Nc3ccc(N(C)C)cc3)[C@H]2O)[C@](C)(O)C[C@@H](C)CN(C)[C@H](C)[C@@H](O)[C@]1(C)O [Example B-7, 3-(4-(dimethylamino)phenyl)-1-((2S,3R,4S,6R)-2-(((2R,3S,4R,5R,8R,10R,11R,12S,13S,14R)-2-ethyl-3,4,10-trihydroxy-13-(((2R,4R,5S,6S)-5-hydroxy-4-methoxy-4,6-dimethyltetrahydro-2H-pyran-2-yl)oxy)-3,5,6,8,10,12,14-heptamethyl-15-oxo-1-oxa-6-azacyclopentadecan-11-yl)oxy)-3-hydroxy-6-methyltetrahydro-2H-pyran-4-yl)-1-methylurea] |  |  | 100 µM | 156 µM | 143 µM
CC[C@H]1OC(=O)[C@H](C)[C@@H](O)[C@H](C)[C@@H](O[C@@H]2O[C@H](C)C[C@H](N(C)C(=O)Nc3ccccc3)[C@H]2O)[C@](C)(O)C[C@@H](C)CN[C@H](C)[C@@H](O)[C@]1(C)O [Example A-13, 1-((2S,3R,4S,6R)-2-(((2R,3S,4R,5R,8R,10R,11R,12S,13S,14R)-2-ethyl-3,4,10,13-tetrahydroxy-3,5,8,10,12,14-hexamethyl-15-oxo-1-oxa-6-azacyclopentadecan-11-yl)oxy)-3-hydroxy-6-methyltetrahydro-2H-pyran-4-yl)-1-methyl-3-phenylurea] |  |  | >500 µM | 200 µM | > 500 µM
CCNC(=O)N(C)[C@H]1C[C@@H](C)O[C@@H](O[C@@H]2[C@@H](C)[C@H](O[C@H]3C[C@@](C)(OC)[C@](O)(CN4CCN(C)CC4)[C@H](C)O3)[C@@H](C)C(=O)O[C@H](CC)[C@@](C)(O)[C@H](O)[C@@H](C)NC[C@H](C)C[C@@]2(C)O)[C@@H]1O [Example J-2, 3-ethyl-1-((2S,3R,4S,6R)-2-(((2R,3S,4R,5R,8R,10R,11R,12S,13S,14R)-2-ethyl-3,4,10-trihydroxy-13-(((2R,4R,5S,6S)-5-hydroxy-4-methoxy-4,6-dimethyl-5-((4-methylpiperazin-1-yl)methyl)tetrahydro-2H-pyran-2-yl)oxy)-3,5,8,10,12,14-hexamethyl-15-oxo-1-oxa-6-azacyclopentadecan-11-yl)oxy)-3-hydroxy-6-methyltetrahydro-2H-pyran-4-yl)-1-methylurea] |  |  | >500 µM | > 500 µM | > 500 µM
CC[C@H]1OC(=O)[C@H](C)[C@@H](O[C@H]2C[C@@](C)(OC)[C@@](C)(O)[C@H](C)O2)[C@H](C)[C@@H](O[C@@H]2O[C@H](C)C[C@H](N(C)C(=O)N(C)c3ccccc3)[C@H]2O)[C@](C)(O)C[C@@H](C)CN[C@H](C)[C@@H](O)[C@]1(C)O [Example B-1, 1-((2S,3R,4S,6R)-2-(((2R,3S,4R,5R,8R,10R,11R,12S,13S,14R)-2-ethyl-3,4,10-trihydroxy-13-(((2R,4R,5S,6S)-5-hydroxy-4-methoxy-4,5,6-trimethyltetrahydro-2H-pyran-2-yl)oxy)-3,5,8,10,12,14-hexamethyl-15-oxo-1-oxa-6-azacyclopentadecan-11-yl)oxy)-3-hydroxy-6-methyltetrahydro-2H-pyran-4-yl)-1,3-dimethyl-3-phenylurea] |  |  | 40 µM | 25 µM | 31 µM
CCCSC[C@]1(O)[C@H](C)O[C@@H](O[C@H]2[C@H](C)[C@@H](O[C@@H]3O[C@H](C)C[C@H](N(C)C(=O)N(C)c4ccccc4)[C@H]3O)[C@](C)(O)C[C@@H](C)CN[C@H](C)[C@@H](O)[C@](C)(O)[C@@H](CC)OC(=O)[C@@H]2C)C[C@@]1(C)OC [Example D-2, 1-((2S,3R,4S,6R)-2-(((2R,3S,4R,5R,8R,10R,11R,12S,13S,14R)-2-ethyl-3,4,10-trihydroxy-13-(((2R,4R,5S,6S)-5-hydroxy-4-methoxy-4,6-dimethyl-5-((propylthio)methyl)tetrahydro-2H-pyran-2-yl)oxy)-3,5,8,10,12,14-hexamethyl-15-oxo-1-oxa-6-azacyclopentadecan-11-yl)oxy)-3-hydroxy-6-methyltetrahydro-2H-pyran-4-yl)-1,3-dimethyl-3-phenylurea] |  |  | 16 µM | 20 µM | 30 µM
CC[C@H]1OC(=O)[C@H](C)[C@@H](O)[C@H](C)[C@@H](O[C@@H]2O[C@H](C)C[C@H](N(C)C(=O)Nc3ccccc3OC)[C@H]2O)[C@](C)(O)C[C@@H](C)CN[C@H](C)[C@@H](O)[C@]1(C)O [Example A-8, 1-((2S,3R,4S,6R)-2-(((2R,3S,4R,5R,8R,10R,11R,12S,13S,14R)-2-ethyl-3,4,10,13-tetrahydroxy-3,5,8,10,12,14-hexamethyl-15-oxo-1-oxa-6-azacyclopentadecan-11-yl)oxy)-3-hydroxy-6-methyltetrahydro-2H-pyran-4-yl)-3-(2-methoxyphenyl)-1-methylurea] |  |  | 101 µM | > 250 µM | 16 µM
CCCNC[C@]1(O)[C@H](C)O[C@@H](O[C@H]2[C@H](C)[C@@H](O[C@@H]3O[C@H](C)C[C@H](N(CCC)C(=O)N(C)c4ccccc4)[C@H]3O)[C@](C)(O)C[C@@H](C)CN[C@H](C)[C@@H](O)[C@](C)(O)[C@@H](CC)OC(=O)[C@@H]2C)C[C@@]1(C)OC [Example H-69, 1-((2S,3R,4S,6R)-2-(((2R,3S,4R,5R,8R,10R,11R,12S,13S,14R)-2-ethyl-3,4,10-trihydroxy-13-(((2R,4R,5S,6S)-5-hydroxy-4-methoxy-4,6-dimethyl-5-((propylamino)methyl)tetrahydro-2H-pyran-2-yl)oxy)-3,5,8,10,12,14-hexamethyl-15-oxo-1-oxa-6-azacyclopentadecan-11-yl)oxy)-3-hydroxy-6-methyltetrahydro-2H-pyran-4-yl)-3-methyl-3-phenyl-1-propylurea] |  |  | 6 µM | 14 µM | 8 µM
CC[C@H]1OC(=O)[C@H](C)[C@@H](O[C@H]2C[C@@](C)(OC)[C@](O)(Cn3ccnn3)[C@H](C)O2)[C@H](C)[C@@H](O[C@@H]2O[C@H](C)C[C@H](N(C)C(=O)N(C)c3ccccc3)[C@H]2O)[C@](C)(O)C[C@@H](C)CN[C@H](C)[C@@H](O)[C@]1(C)O [Example J-28, 1-((2S,3R,4S,6R)-2-(((2R,3S,4R,5R,8R,10R,11R,12S,13S,14R)-13-(((2R,4R,5S,6S)-5-((1H-1,2,3-triazol-1-yl)methyl)-5-hydroxy-4-methoxy-4,6-dimethyltetrahydro-2H-pyran-2-yl)oxy)-2-ethyl-3,4,10-trihydroxy-3,5,8,10,12,14-hexamethyl-15-oxo-1-oxa-6-azacyclopentadecan-11-yl)oxy)-3-hydroxy-6-methyltetrahydro-2H-pyran-4-yl)-1,3-dimethyl-3-phenylurea] |  |  | 100 µM | 57 µM | 152 µM
